Source: ChEMBL document CHEMBL3576831, “Discovery of a Selective TRPM8 Antagonist with Clinical Efficacy in Cold-Related Pain” (ACS Med Chem Lett, 2015)
Each block holds one molecule with its values, some of them ahead of it.

Tests used:
[1] = test system: Hepatocyte; assay: Intrinsic clearance in human hepatocytes assessed per million cells; assay type: ADME, cell-based
[2] = target: Transient receptor potential cation channel subfamily M member 8 (Homo sapiens, UniProt Q7Z2W7); assay: Antagonist activity against human recombinant TRPM8 expressed in CHO T-rex cells assessed as inhibition of WS12-induced calcium response pre-incubated for 20 mins before WS12 addition; assay type: cell-based
[3] = target: CYP3A4 (Homo sapiens, UniProt P08684); assay: Inhibition of CYP3A4 (unknown origin) at 3 uM; assay type: ADME
[4] = target: CYP2C9 (Homo sapiens, UniProt P11712); assay: Inhibition of CYP2C9 (unknown origin) at 3 uM; assay type: ADME
[5] = Lipophilicity, log D of the compound; assay type: physicochemical; settings: octanol/water
[6] = test system: Liver microsome; assay: Intrinsic clearance in rat liver microsomes; assay type: ADME
[7] = Intrinsic clearance in human liver microsomes; assay type: ADME; settings: read-out: CLH
[8] = target: CYP2D6 (Homo sapiens, UniProt P10635); assay: Inhibition of CYP2D6 (unknown origin) at 3 uM; assay type: ADME
[9] = target: T1, CYP1A2 (Homo sapiens, UniProt P05177); assay: Inhibition of CYP1A2 (unknown origin) at 3 uM; assay type: ADME
T1 sequence (P05177 whole entry): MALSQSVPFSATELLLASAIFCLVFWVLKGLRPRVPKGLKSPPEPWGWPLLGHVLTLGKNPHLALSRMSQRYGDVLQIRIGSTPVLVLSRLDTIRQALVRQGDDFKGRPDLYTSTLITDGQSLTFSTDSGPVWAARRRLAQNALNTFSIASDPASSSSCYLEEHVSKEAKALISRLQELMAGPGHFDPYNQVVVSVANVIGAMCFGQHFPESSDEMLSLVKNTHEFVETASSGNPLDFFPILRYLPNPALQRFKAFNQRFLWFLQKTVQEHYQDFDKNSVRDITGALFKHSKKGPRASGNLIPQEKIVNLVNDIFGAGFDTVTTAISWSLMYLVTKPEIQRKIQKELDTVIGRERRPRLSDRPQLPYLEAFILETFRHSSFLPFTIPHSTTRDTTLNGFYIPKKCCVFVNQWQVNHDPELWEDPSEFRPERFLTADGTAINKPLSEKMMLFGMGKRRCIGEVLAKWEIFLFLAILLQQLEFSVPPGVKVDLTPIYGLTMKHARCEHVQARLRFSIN

[10] = target: T2, CYP2C8 (Homo sapiens, UniProt P10632); assay: Inhibition of CYP2C8 (unknown origin) at 3 uM; assay type: ADME
T2 sequence (P10632 whole entry): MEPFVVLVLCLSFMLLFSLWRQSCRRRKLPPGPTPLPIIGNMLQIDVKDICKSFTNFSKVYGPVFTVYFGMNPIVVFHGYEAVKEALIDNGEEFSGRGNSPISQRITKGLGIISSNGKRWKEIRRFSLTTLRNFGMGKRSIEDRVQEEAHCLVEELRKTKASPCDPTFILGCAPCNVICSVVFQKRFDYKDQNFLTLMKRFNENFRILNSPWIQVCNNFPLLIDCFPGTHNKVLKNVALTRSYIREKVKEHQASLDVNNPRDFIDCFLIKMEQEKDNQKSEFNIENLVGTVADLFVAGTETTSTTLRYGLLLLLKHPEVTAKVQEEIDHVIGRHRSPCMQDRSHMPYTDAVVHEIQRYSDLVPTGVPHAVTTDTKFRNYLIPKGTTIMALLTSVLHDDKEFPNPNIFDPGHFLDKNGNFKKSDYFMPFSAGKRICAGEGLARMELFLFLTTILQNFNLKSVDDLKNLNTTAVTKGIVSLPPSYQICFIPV

[11] = target: Voltage-gated inwardly rectifying potassium channel KCNH2 (Homo sapiens, UniProt Q12809); assay: Inhibition of dofetilide binding to human ERG
Sequence of Voltage-gated inwardly rectifying potassium channel KCNH2 (Q12809 whole entry): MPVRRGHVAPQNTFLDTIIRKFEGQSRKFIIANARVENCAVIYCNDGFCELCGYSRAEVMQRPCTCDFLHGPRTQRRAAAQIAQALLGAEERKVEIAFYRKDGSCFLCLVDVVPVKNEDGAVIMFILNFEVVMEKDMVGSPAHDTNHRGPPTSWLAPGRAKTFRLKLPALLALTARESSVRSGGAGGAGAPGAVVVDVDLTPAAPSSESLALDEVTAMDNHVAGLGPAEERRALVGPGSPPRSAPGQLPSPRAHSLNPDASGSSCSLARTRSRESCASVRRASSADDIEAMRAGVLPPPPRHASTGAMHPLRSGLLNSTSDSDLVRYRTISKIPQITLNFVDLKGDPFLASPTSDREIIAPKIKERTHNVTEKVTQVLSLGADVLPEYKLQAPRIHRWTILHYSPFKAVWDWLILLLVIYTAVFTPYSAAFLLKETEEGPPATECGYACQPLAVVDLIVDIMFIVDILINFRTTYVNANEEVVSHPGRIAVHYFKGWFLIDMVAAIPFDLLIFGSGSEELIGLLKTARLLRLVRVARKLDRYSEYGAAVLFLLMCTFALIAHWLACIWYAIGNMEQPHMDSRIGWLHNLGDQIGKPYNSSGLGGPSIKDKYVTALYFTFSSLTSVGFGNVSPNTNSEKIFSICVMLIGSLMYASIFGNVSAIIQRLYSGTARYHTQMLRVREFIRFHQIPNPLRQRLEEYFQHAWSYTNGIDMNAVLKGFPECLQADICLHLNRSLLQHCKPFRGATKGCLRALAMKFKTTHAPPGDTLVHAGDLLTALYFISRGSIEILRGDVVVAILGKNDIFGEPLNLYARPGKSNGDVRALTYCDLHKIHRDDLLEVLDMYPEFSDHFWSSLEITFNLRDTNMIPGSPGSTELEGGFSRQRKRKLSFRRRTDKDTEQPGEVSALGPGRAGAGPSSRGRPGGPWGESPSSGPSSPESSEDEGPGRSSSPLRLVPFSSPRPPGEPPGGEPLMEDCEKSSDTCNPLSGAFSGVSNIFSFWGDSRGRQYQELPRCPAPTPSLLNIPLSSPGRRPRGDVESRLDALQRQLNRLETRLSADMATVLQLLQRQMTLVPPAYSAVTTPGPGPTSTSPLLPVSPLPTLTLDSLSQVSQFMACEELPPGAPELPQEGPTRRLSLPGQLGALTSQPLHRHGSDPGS

Sequence of Transient receptor potential cation channel subfamily M member 8 (Q7Z2W7 whole entry): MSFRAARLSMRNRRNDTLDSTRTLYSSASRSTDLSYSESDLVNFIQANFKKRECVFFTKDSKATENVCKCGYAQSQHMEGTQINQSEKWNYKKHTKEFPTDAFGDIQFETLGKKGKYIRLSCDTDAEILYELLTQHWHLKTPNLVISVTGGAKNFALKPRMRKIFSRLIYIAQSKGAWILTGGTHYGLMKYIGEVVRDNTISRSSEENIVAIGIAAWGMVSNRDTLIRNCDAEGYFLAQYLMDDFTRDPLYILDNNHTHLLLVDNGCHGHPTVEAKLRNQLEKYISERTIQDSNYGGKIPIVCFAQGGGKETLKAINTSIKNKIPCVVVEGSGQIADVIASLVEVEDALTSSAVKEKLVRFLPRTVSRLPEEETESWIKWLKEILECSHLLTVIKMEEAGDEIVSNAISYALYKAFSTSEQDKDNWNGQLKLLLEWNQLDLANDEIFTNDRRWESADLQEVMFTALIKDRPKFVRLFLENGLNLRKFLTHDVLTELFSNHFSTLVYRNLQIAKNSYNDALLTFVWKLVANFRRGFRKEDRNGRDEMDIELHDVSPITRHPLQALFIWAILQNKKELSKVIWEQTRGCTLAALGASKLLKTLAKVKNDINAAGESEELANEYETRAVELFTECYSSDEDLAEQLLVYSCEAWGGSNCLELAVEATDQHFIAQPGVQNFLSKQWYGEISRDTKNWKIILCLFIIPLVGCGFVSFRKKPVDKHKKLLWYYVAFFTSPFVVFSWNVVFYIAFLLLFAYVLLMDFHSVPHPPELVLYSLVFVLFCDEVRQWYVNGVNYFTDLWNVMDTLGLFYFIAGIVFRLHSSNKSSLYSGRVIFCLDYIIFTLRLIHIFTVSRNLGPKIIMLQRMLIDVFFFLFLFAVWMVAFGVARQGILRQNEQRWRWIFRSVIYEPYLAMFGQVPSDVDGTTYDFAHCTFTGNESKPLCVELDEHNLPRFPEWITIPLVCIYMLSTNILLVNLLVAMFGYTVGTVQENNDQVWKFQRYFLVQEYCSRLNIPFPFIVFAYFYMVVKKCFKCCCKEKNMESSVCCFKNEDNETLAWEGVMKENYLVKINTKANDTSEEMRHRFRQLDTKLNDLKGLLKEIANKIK
Sequence of CYP2D6 (P10635 whole entry): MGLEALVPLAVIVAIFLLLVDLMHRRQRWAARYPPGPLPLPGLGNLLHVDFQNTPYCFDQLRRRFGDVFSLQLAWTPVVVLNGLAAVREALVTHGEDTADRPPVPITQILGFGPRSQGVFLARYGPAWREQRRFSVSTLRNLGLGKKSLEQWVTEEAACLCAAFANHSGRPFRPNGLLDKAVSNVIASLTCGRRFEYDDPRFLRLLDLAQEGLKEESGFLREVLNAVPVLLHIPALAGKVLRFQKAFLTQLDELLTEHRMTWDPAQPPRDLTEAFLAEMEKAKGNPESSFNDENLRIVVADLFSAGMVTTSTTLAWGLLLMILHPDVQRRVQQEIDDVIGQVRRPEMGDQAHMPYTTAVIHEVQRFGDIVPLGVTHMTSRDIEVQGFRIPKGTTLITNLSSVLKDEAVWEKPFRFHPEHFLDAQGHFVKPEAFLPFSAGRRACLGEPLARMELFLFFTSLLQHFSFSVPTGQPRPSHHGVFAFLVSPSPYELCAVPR
Sequence of CYP3A4 (P08684 whole entry): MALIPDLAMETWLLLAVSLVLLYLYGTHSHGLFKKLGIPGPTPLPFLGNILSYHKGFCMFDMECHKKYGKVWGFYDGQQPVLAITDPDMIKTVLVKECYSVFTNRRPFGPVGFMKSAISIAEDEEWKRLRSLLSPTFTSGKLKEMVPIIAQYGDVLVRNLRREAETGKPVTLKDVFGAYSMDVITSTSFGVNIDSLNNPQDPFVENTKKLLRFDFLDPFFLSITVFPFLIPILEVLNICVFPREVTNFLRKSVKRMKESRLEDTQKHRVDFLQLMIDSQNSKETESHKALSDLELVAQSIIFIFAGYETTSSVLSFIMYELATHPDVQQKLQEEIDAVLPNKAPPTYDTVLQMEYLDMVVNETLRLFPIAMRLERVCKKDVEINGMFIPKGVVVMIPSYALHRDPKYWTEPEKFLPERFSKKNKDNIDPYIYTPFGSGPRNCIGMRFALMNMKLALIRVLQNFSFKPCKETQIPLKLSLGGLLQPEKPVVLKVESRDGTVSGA
Sequence of CYP2C9 (P11712 whole entry): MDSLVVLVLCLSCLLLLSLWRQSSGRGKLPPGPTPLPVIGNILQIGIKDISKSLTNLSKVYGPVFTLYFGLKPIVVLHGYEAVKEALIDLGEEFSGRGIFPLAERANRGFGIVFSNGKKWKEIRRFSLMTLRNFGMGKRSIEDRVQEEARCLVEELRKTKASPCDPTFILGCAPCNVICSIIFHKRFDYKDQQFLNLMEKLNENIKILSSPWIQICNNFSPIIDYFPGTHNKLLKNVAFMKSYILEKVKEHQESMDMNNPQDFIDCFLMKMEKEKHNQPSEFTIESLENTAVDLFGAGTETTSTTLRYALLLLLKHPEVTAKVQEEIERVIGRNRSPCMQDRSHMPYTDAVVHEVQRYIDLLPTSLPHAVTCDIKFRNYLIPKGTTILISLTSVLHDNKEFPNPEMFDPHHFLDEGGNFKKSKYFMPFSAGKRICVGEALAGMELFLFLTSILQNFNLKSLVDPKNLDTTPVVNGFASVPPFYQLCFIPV

SMILES: CC(c1ccc(F)cc1)N(Cc1cccc(C(=O)O)c1)C(=O)C1Cc2ccccc2C1 (racemic)
- IC50 [2]: > 5 µM

SMILES: CC[C@H](c1ccc(C)o1)N(Cc1cccc(C(=O)O)c1)C(=O)c1cnc2ccccc2c1
- IC50 [2]: 0.328 µM

SMILES: CC(c1ccc(F)cc1)N(Cc1cccc(C(=O)O)c1)C(=O)c1ccc2c(c1)CCO2 (racemic)
- IC50 [2]: 3.62 µM

SMILES: C[C@H](c1ccc(F)cc1)N(Cc1cccc(C(=O)O)n1)C(=O)c1cnc2ccccc2c1
- IC50 [2]: 1.16 µM

SMILES: C[C@H](c1ccc(F)cc1)N(Cc1cccc(C(=O)O)c1)C(=O)Cc1cccc(Cl)c1
- IC50 [2]: > 10 µM

SMILES: Cc1ccc(CN(C(=O)c2cnc3ccccc3c2)[C@H](C)c2ccc(F)cc2)cc1C(=O)O
- IC50 [2]: > 7.82 µM

SMILES: COc1ccc(C(C)N(Cc2cccc(C(=O)O)c2)C(=O)c2cnc3ccccc3c2)cc1 (stereo unspecified)
- IC50 [2]: 6.1 µM

SMILES: O=C(O)c1cccc(CN(Cc2ccc(F)cc2)C(=O)c2cnc3ccccc3c2)c1
- IC50 [2]: > 9.36 µM

Molecules with a lower IC50 [2], results first:

- hepatocyte intrinsic clearance [1]: 48 µL/min/million cells
- IC50 [2]: 0.123 µM
- inhibition at 3 µM [3]: 0%
- inhibition at 3 µM [4]: 0%
- logD [5]: 1.2
- microsomal CLint [6]: 41 µL/min/mg
- microsomal CLint [7]: 28 µL/min/mg
- inhibition at 3 µM [8]: 0%
- inhibition at 3 µM [9]: 0%
- inhibition at 3 µM [10]: 0%
SMILES: CC[C@H](c1ccc(F)cc1F)N(Cc1cccc(C(=O)O)c1)C(=O)c1cc2ccccn2n1

- hepatocyte intrinsic clearance [1]: 31 µL/min/million cells
- IC50 [2]: 0.234 µM
- logD [5]: 0.9
- microsomal CLint [6]: 85 µL/min/mg
- microsomal CLint [7]: 23 µL/min/mg
SMILES: C[C@H](c1ccc(F)cc1F)N(Cc1cccc(C(=O)O)c1)C(=O)c1cc2ccccn2n1

- hepatocyte intrinsic clearance [1]: 21 µL/min/million cells
- IC50 [2]: 0.09 µM
- logD [5]: 1.1
- microsomal CLint [6]: 166 µL/min/mg
- microsomal CLint [7]: 16 µL/min/mg
SMILES: C[C@H](c1ccc(F)cc1)N(Cc1cccc(C(=O)O)c1)C(=O)c1cc2ccccc2cn1
- Ki [11]: > 9.18 µM

- IC50 [2]: 0.288 µM
SMILES: C[C@H](c1ccc(F)cc1F)N(Cc1cccc(C(=O)O)c1)C(=O)c1cnc2ccccc2c1

- hepatocyte intrinsic clearance [1]: 28 µL/min/million cells
- IC50 [2]: 0.202 µM
- logD [5]: 1.3
- microsomal CLint [6]: < 14 µL/min/mg
- microsomal CLint [7]: < 8 µL/min/mg
SMILES: CC[C@H](c1ccc(F)cc1)N(Cc1cccc(C(=O)O)c1)C(=O)c1cnc2ccccc2c1
- Ki [11]: > 15.2 µM

- hepatocyte intrinsic clearance [1]: 45 µL/min/million cells
- IC50 [2]: 0.062 µM
- inhibition at 3 µM [3]: 0%
- inhibition at 3 µM [4]: 0%
- logD [5]: 1.5
- microsomal CLint [6]: 102 µL/min/mg
- microsomal CLint [7]: 10 µL/min/mg
- inhibition at 3 µM [8]: 0%
- inhibition at 3 µM [9]: 0%
- inhibition at 3 µM [10]: 0%
SMILES: C[C@H](c1cccc(Cl)c1)N(Cc1cccc(C(=O)O)c1)C(=O)c1cnc2ccccc2c1

- hepatocyte intrinsic clearance [1]: < 2 µL/min/million cells
- IC50 [2]: 0.06 µM
- inhibition at 3 µM [3]: 0%
- inhibition at 3 µM [4]: 0%
- logD [5]: 1.1
- microsomal CLint [6]: 31 µL/min/mg
- microsomal CLint [7]: 11 µL/min/mg
- inhibition at 3 µM [8]: 0%
- inhibition at 3 µM [9]: 0%
- inhibition at 3 µM [10]: 0%
SMILES: C[C@H](c1ccc(F)cc1F)N(Cc1cccc(C(=O)O)c1)C(=O)c1cc2ccccc2cn1
